What was measured:
[1] = molecular target: T1, D384GB (D384 with GFP at the linker N-terminus and BFP in AAA2) (Homo sapiens, UniProt Q14204); test: BFP-GFP FRET efficiency of linker swing against ATP, steady state; format: biochemical; details: no microtubules; ATP-regenerating system (creatine phosphate / creatine phosphate kinase); 100 nM dynein; conformational read-out, not a turnover Km; read-out: Km^E (k1/kT)
T1 construct: gene DYNC1H1; Gly1288-Glu4646; N-terminal FLAG, BCCP and AcGFP kept; BFP inserted between Glu2404 and Gly2405 (AAA2); Sf9; monomer
T1 sequence (Q14204 1288-2404): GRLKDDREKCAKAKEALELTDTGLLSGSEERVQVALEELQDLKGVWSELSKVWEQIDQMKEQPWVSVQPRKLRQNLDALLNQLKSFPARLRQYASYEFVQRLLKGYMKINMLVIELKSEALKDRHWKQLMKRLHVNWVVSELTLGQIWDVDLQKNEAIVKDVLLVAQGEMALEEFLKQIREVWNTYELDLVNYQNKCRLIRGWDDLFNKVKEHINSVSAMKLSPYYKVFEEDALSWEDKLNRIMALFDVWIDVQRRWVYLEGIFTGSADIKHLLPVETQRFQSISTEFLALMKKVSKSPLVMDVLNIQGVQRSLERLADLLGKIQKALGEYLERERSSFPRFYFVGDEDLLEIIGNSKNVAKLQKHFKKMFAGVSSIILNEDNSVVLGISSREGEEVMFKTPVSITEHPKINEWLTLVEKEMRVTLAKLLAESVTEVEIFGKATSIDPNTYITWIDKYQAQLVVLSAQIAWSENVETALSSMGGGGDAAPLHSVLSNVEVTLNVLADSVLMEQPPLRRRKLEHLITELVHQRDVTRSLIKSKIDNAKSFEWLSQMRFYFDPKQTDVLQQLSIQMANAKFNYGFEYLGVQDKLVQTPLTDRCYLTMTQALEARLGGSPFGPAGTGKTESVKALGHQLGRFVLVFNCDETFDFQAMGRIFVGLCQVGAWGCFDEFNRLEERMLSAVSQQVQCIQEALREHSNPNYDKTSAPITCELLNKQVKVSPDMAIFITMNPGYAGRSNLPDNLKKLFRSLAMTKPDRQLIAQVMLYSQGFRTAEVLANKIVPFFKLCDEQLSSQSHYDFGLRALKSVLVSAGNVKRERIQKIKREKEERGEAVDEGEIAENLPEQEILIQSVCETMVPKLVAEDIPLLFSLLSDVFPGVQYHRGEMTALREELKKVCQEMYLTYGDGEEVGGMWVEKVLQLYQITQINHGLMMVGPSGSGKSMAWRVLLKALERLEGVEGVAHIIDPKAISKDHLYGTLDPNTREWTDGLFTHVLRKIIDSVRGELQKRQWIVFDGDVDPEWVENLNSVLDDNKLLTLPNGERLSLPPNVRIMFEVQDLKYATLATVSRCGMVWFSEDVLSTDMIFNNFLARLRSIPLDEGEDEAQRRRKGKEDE
T1 sequence (Q14204 2405-4646): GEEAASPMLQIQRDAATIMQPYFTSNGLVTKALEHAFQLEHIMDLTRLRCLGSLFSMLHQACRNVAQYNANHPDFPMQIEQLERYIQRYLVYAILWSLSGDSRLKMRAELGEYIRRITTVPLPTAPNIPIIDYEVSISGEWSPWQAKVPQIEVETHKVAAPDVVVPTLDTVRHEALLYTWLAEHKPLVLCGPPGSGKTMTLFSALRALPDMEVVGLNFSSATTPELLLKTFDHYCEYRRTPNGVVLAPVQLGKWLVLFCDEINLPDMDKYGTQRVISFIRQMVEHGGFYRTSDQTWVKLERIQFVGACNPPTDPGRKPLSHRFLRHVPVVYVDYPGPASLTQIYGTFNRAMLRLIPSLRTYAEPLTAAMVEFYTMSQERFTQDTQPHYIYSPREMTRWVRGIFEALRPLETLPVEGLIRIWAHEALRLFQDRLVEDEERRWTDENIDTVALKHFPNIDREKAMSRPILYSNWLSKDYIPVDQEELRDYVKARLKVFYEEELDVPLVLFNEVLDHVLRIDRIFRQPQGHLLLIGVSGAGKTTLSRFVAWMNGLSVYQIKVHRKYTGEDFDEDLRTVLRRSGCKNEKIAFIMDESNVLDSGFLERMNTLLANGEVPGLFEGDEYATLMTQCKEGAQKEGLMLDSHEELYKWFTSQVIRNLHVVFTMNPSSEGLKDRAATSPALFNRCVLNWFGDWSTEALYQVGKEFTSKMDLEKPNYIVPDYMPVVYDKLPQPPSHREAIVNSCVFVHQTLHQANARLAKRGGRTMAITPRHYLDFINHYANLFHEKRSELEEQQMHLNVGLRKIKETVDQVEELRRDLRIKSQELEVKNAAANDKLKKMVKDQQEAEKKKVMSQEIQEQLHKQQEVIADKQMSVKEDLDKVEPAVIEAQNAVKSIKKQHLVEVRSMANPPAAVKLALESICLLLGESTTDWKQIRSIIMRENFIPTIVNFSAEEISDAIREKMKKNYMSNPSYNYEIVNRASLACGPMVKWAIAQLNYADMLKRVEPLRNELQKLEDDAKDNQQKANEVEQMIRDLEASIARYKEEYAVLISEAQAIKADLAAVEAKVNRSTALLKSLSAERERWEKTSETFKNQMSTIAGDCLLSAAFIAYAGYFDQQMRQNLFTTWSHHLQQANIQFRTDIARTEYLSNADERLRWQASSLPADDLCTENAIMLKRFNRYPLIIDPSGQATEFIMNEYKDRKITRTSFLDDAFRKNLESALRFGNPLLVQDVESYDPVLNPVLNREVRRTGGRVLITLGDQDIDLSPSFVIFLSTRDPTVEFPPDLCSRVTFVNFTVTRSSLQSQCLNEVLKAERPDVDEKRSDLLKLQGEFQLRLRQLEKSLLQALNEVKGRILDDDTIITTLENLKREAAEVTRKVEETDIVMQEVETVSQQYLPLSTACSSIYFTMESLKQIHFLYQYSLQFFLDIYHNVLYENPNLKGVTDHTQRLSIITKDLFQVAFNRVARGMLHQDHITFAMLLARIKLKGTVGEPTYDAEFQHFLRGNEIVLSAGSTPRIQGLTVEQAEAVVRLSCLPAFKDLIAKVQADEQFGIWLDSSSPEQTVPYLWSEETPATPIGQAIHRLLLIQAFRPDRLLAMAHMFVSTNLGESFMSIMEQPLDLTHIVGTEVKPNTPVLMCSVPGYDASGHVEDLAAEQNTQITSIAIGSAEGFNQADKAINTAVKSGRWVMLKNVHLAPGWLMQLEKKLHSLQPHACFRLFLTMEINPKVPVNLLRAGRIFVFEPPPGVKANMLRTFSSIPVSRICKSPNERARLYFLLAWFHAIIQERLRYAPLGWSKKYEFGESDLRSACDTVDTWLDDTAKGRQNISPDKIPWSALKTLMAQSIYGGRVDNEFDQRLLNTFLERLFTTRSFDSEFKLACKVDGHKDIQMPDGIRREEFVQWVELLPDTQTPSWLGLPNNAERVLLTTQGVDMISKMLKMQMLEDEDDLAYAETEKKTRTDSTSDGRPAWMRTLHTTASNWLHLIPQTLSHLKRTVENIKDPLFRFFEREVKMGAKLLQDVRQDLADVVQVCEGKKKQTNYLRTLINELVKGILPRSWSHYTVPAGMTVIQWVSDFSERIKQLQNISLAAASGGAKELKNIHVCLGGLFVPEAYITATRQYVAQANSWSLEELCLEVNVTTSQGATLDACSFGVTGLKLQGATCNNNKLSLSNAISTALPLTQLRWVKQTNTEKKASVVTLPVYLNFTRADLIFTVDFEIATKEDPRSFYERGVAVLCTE

[2] = molecular target: T1, D384GB (D384 with GFP at the linker N-terminus and BFP in AAA2); test: ATPase assay, phosphate release (EnzChek, absorbance […] nm); format: biochemical; details: basal, no microtubules; 25 °C; read-out: Michaelis-Menten constant

Which results are given for `Nc1ncnc2c1ncn2[C@@H]1O[C@H](COP(=O)(O)OP(=O)(O)OP(=O)(O)O)[C@@H](O)[C@H]1O` [ATP]?
Km [1]: 3.3 ± 0.3 µM; Km [2]: 27 ± 3 µM

— article PMC6218510, “Step Sizes and Rate Constants of Single-headed Cytoplasmic Dynein Measured with Optical Tweezers” (Scientific Reports, 2018)
